The record followed here is US7268152B2, “Glucocorticoid mimetics, methods of making them, pharmaceutical compositions, and uses thereof” (Boehringer Ingelheim Pharmaceuticals, Inc., priority 2002, dated 2007).

In general, IC50 refers to the concentration that inhibits the measured activity by half. A higher IC50 goes with weaker potency in that assay. The term melting point denotes the temperature, or range, at which the solid turns liquid.

Series [1] addresses T1, human glucocorticoid receptor (GR) complex (Homo sapiens, UniProt P04150).
T1 construct: made in house; host or cells: insect expression system (baculovirus lysate)
T1 sequence (P04150 1-777): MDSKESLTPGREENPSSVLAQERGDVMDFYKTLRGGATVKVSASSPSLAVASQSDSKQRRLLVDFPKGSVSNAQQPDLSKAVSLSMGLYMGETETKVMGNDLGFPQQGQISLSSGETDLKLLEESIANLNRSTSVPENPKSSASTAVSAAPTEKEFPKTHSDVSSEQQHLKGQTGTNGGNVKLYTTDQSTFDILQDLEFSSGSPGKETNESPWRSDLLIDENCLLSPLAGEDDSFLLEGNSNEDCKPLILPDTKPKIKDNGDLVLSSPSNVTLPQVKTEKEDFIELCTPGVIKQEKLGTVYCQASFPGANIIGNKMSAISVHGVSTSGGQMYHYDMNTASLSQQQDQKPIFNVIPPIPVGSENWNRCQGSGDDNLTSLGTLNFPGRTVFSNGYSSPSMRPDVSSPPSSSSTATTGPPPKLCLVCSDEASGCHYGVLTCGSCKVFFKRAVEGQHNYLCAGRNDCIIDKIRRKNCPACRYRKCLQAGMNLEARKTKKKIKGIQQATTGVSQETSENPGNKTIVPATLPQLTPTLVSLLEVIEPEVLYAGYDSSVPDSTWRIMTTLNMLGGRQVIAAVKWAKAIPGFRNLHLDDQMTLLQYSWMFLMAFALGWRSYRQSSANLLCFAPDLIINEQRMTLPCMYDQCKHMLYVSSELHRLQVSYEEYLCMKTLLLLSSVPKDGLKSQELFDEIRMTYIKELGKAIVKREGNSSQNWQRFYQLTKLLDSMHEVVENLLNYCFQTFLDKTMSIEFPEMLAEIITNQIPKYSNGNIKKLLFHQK
As to the kind of experiment: Glucocorticoid receptor competitive binding assay (fluorescence polarization). To be noted: competition with TAMRA-labeled dexamethasone. In a few lines: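 FP competition against 15 nM TAMRA-labeled dexamethasone (stock added) for GR complex in baculovirus insect-cell lysate, buffer 10 mM TES, 50 mM KCl, 20 mM molybdate, pH 7.4 with 1 mM DTT. Incubated 1 h at room temperature, read at ex 550/em 580 nm; IC50 from 4-parameter logistic fit.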

Another series concerns glucocorticoid receptor. Put plainly: One or more of the above assays (GR binding and GR cell assays; not specified which). It counts as cell-based. To be noted: in one or more of the above assays. The procedure: This assay uses fluorescence polarization (FP) to quantitate the ability of test compounds to compete with tetramethyl rhodamine (TAMRA)-labeled dexamethasone for binding to a human glucocorticoid receptor (GR) complex prepared from an insect expression system. The assay buffer was: 10 mM TES, 50 mM KCl, 20 mM Na2MoO4.2H2O, 1.5 mM EDTA, 0.04% w/v CHAPS, 10% v/v glycerol, 1 mM dithiothreitol, pH 7.4. Test compounds were dissolved to 1 mM in neat DMSO and then further diluted to 10×assay concentration in assay buffer supplemented with 10% v/v DMSO. Test compounds were serially diluted at 10×assay concentrations in 10% DMSO-containing buffer in 96-well polypropylene plates. […] Positive controls were reaction mixtures containing no test compound; negative controls (blanks) were reaction mixtures containing 0.7 μM to 2 μM dexamethasone. […] IC50 values were determined by iterative non-linear curve fitting of the FP signal data to a 4-parameter logistic equation.
B. Glucocorticoid Receptor Cell Assays
1. Induction of Aromatase in Fibroblasts (Cell Assay for Transactivation)
Dexamethasone, a synthetic ligand to the glucocorticoid receptor (GR), induces expression of aromatase in human foreskin fibroblast cells. The activity of aromatase is measured by the conversion of testosterone to estradiol in culture media.
On the day of the experiment, the media in the wells is replaced with fresh media. Cells are treated with test compounds to final concentrations of 10^−5 M to 10 ^−8 M, and testosterone to a final concentration of 300 ng/mL. Each well has a total volume of 100 μL. Samples are made in duplicates. Control wells include: (a) wells that receive testosterone only, and (b) wells that receive testosterone plus 2 μM of dexamethasone to provide maximum induction of aromatase. Plates are incubated at 37° C. overnight (15 to 18 hours), and supernatants are harvested at the end of incubation. […] The amount of estradiol is inversely proportional to the ELISA signals in each well. The extent of aromatase induction by test compounds is expressed as a relative percentage to dexamethasone. EC50 values of test compounds are derived by non-linear curve fitting.
2. Inhibition of IL-6 Production in Fibroblasts (Cell Assay for Transrepression)
Human foreskin fibroblast cells produce IL-6 in response to stimulation by pro-inflammatory cytokine IL-1.
On the next day, media in the wells is replaced with fresh media. Cells are treated with IL-1 (rhIL-1α, R&D Systems Cat. No. 200-LA) to a final concentration of 1 ng/mL, and with test compounds to final concentrations of 10 ^−5 M to 10 ^−8 M, in a total volume of 200 μL per well. Samples are done in duplicates. […] Positive control wells receive IL-1 only and represent maximum (or 100%) amount of IL-6 production. Plates are incubated at 37° C. overnight (15 to 18 hours), and supernatants are harvested at the end of incubation. IL-6 levels in the supernatants are determined by the ELISA kits for IL-6 (MedSystems Diagnostics GmbH, Vienna, Austria, Cat. No. BMS213TEN) according to manufacture's instructions. The extent of inhibition of IL-6 by test compounds is expressed in percentage relative to positive controls. IC50 values of test compounds are derived by non-linear curve fitting.
Evaluation of agonist or antagonist activity of compounds binding to the glucocorticoid receptor may be determined by any of the assays.
3. Modulation of Tyrosine Aminotransferase (TAT) Induction in Rat Hepatoma Cells
Testing of compounds for agonist or antagonist activity in induction of tyrosine aminotransferase (TAT) in rat hepatoma cells.
H4-II-E-C3 cells were incubated overnight in 96 well plates (20,000 cells/100 μL/well) in MEM medium containing 10% heat inactivated FBS and 1% nonessential amino acids. On the next day, cells were stimulated with the indicated concentrations of dexamethasone or test compound (dissolved in DMSO, final DMSO concentration 0.2%) for 18 hours. Control cells were treated with 0.2% DMSO.

In series [1], `Cc1cc(Cl)cc(CC(O)(CC(C)(C)c2cc(F)ccc2O)C(F)(F)F)c1` (centres unmarked) [2-[3-(3-Chloro-5-methylbenzyl)-4,4,4-trifluoro-3-hydroxy-1,1-dimethylbutyl]-4-fluorophenol] came in with an IC50 of at most 100 nM. Moreover, the “activity as agonists of the glucocorticoid receptor function” value (“activity” below) in the series on glucocorticoid receptor was “activity as agonists”.

Molecule `COc1ccc(F)cc1C(C)(C)CC(O)(Cc1ccc(C#N)cc1Cl)C(F)(F)F` (centres unmarked) [3-Chloro-4-[4-(5-fluoro-2-methoxyphenyl)-2-hydroxy-4-methyl-2-trifluoromethylpentyl]benzonitrile] displayed a half-maximal inhibitory concentration (IC50) in series [1] of at most 100 nM. Further, the “activity” value in the series on glucocorticoid receptor was “activity as agonists”.

For the molecule `COc1ccc(F)cc1C(C)(C)CC(O)(Cc1cc(C)cc(C)c1)C(F)(F)F` (centres unmarked) [2-(3,5-Dimethylbenzyl)-1,1,1-trifluoro-4-(5-fluoro-2-methoxyphenyl)-4-methylpentan-2-ol], the IC50 in series [1] is at most 100 nM. Also, the “activity” value in the series on glucocorticoid receptor was “activity as agonists”.

Take `Cc1cc(C)cc(CC(O)(CC(C)(C)c2cccc3c2OCC3)C(F)(F)F)c1` (centres unmarked) [4-(2,3-Dihydrobenzofuran-7-yl)-2-(3,5-dimethylbenzyl)-1,1,1-trifluoro-4-methylpentan-2-ol]: in series [1], the IC50 is at most 100 nM. In addition, the “activity” value in the series with glucocorticoid receptor is on record as “activity as agonists”.

For `COc1ccc(F)cc1C(C)(C)CC(O)(Cc1cc(C)cc(C)c1C#N)C(F)(F)F` (centres unmarked) [Example 32, 2-[4-(5-fluoro-2-methoxyphenyl)-2-hydroxy-4-methyl-2-trifluoromethylpentyl]-4,6-dimethylbenzonitrile], the melting point lay in the range of 134 to 136 °C.

In the case of `CC(C)(CC(O)(Cc1ccc(C#N)cc1Cl)C(F)(F)F)c1cccc2c1OCC2` (centres unmarked) [3-Chloro-4-[4-(2,3-dihydrobenzofuran-7-yl)-2-hydroxy-4-methyl-2-trifluoromethylpentyl]benzonitrile], in series [1], the IC50 is at most 100 nM. The “activity” value with glucocorticoid receptor is “activity as agonists”.

Regarding `COc1ccc(F)cc1C(C)(C)CC(O)(Cc1cc(Br)cc(Br)c1)C(F)(F)F` (centres unmarked) [2-(3,5-Dibromobenzyl)-1,1,1-trifluoro-4-(5-fluoro-2-methoxyphenyl)-4-methylpentan-2-ol], the IC50 in series [1] was at most 100 nM. Also, in the series with glucocorticoid receptor, the “activity” value is listed as “activity as agonists”.

The molecule `CC(C)(CC(O)(Cc1cc(C(F)(F)F)cc(Cl)c1F)C(F)(F)F)c1cccc2ccoc12` (centres unmarked) [4-Benzofuran-7-yl-2-(3-chloro-2-fluoro-5-trifluoromethylbenzyl)-1,1,1-trifluoro-4-methylpentan-2-ol] returned an IC50 in series [1] of at most 100 nM. Further, in the series on glucocorticoid receptor, the “activity” value is “activity as agonists”.

As for `COc1ccc(F)cc1C(C)(C)CC(O)(Cc1cc(C)cc(Cl)c1)C(F)(F)F` (centres unmarked) [2-(3-Chloro-5-methylbenzyl)-1,1,1-trifluoro-4-(5-fluoro-2-methoxyphenyl)-4-methylpentan-2-ol], in series [1], the IC50 was at most 100 nM. In the series on glucocorticoid receptor, the “activity” value is reported as “activity as agonists”.

The molecule `CC(C)(CC(O)(Cc1cc(Br)cc(Br)c1)C(F)(F)F)c1cc(F)ccc1O` (centres unmarked) [2-[3-(3,5-Dibromobenzyl)-4,4,4-trifluoro-3-hydroxy-1,1-dimethylbutyl]-4-fluorophenol] came in with an IC50 in series [1] of at most 100 nM. In the series with glucocorticoid receptor, the “activity” value was “activity as agonists”.

`COc1ccc(F)cc1C(C)(C)CC(O)(Cc1cc(C(F)(F)F)cc(Cl)c1F)C(F)(F)F` (centres unmarked) [2-(3-Chloro-2-fluoro-5-trifluoromethylbenzyl)-1,1,1-trifluoro-4-(5-fluoro-2-methoxyphenyl)-4-methylpentan-2-ol] returned an IC50 in series [1] of at most 100 nM. For the same molecule, in the series with glucocorticoid receptor, the “activity” value is “activity as agonists”.

In series [1], `COc1ccc(F)cc1C(C)(C)CC(O)(Cc1cc(Br)cc(C)c1F)C(F)(F)F` (centres unmarked) [2-(5-Bromo-2-fluoro-3-methylbenzyl)-1,1,1-trifluoro-4-(5-fluoro-2-methoxyphenyl)-4-methylpentan-2-ol] yielded an IC50 of at most 100 nM. The “activity” value in the series with glucocorticoid receptor is given as “activity as agonists”.
